Reference: ChEMBL document CHEMBL5247622, “Structural optimization of Imidazo[1, 2-a]pyridine derivatives for the treatment of gastric cancer via STAT3 signaling pathway” (Eur J Med Chem, 2022)
Active and inactive are the calls of the source. No cut-off for these calls is given here.

Columns and labels:
[1] = target: Signal transducer and activator of transcription 3 (Homo sapiens) (UniProt P40763); test: Inhibition of HA-tagged STAT3 (unknown origin) dimerization transfected in HEK293T cells at 0.3 to 3 uM incubated for 24 hrs followed by IL-6 stimulation and measured after 1 hr by immunoprecipitation assay; type: cell-based; settings: dose 0.3-3 µM, time 25.0 hrs
[2] = target: Signal transducer and activator of transcription 3 (Homo sapiens) (UniProt P40763); test: In vivo inhibition of STAT3 in BALB/c mouse xenografted with human MGC-803 cells assessed as reduction of c-Myc expression in tumor at 5 mg/kg,ip administrated for 21 consecutive days by immunohistochemistry analysis; type: functional, organism-based
[3] = Toxicity in BALB/c mouse xenografted with human MGC-803 cells assessed as morphological change in kidney at 15 mg/kg,ip administrated for 21 consecutive days by hematoxylin and eosin staining method; type: organism-based; settings: in vivo
[4] = Toxicity in BALB/c mouse xenografted with human MGC-803 cells assessed as morphological change in kidney at 5 mg/kg,ip administrated for 21 consecutive days by hematoxylin and eosin staining method; type: organism-based; settings: in vivo
AGS [5] = test: Inhibition of cell invasion in human AGS cells at 0.03 to 0.3 uM incubated for 12 hrs by crystal violet staining based transwell assay; type: functional; settings: dose 0.03-0.3 µM
[6] = target: Signal transducer and activator of transcription 3 (Homo sapiens) (UniProt P40763); test: Inhibition of STAT3 in human AGS cells assessed as reduction of c-Myc protein expression level at 0.3 to 3 uM by western blot assay; type: cell-based; settings: dose 0.3-3 µM
[7] = target: Signal transducer and activator of transcription 3 (Homo sapiens) (UniProt P40763); test: Inhibition of STAT3 in human MGC-803 cells assessed as inhibition of STAT3 phosphorylation level at Tyr705 at 0.3 to 3 uM by western blot assay; type: cell-based; settings: dose 0.3-3 µM
MGC-803 [8] = test: Inhibition of cell invasion in human MGC-803 cells at 0.03 to 0.3 uM incubated for 12 hrs by crystal violet staining based transwell assay; type: functional; settings: dose 0.03-0.3 µM
AGS [9] = test: Antiproliferative activity against human AGS cells assessed as reduction in cell viability incubated for 72 hrs by CCK-8 assay; type: functional, cell-based
AGS [10] = test: Induction of apoptosis in human AGS cells assessed as late apoptotic cells at 3 uM incubated for 48 hrs by Annexin V-FITC/PI staining based flow cytometry method (reference value: 2.46 %); type: functional
[11] = target: Signal transducer and activator of transcription 3 (Homo sapiens) (UniProt P40763); test: Inhibition of STAT3 in human MGC-803 cells assessed as inhibition of total STAT3 protein level at 0.3 to 3 uM by western blot assay; type: cell-based; settings: dose 0.3-3 µM
MGC-803 [12] = test: Antiproliferative activity against human MGC-803 cells assessed as reduction in cell viability incubated for 72 hrs by CCK-8 assay; type: functional, cell-based; settings: MGC-803, 72 h
[13] = target: Signal transducer and activator of transcription 3 (Homo sapiens) (UniProt P40763); test: Inhibition of STAT3 in human AGS cells assessed as inhibition of total STAT3 protein level at 0.3 to 3 uM by western blot assay; type: cell-based; settings: dose 0.3-3 µM
[14] = Toxicity in BALB/c mouse xenografted with human MGC-803 cells assessed as morphological change in lung at 5 mg/kg,ip administrated for 21 consecutive days by hematoxylin and eosin staining method; type: organism-based; settings: in vivo
MGC-803 [15] = test: Antitumor activity against human MGC-803 cells xenografted in BALB/c mouse assessed as reduction of Ki67 expression level in tumor at 5 mg/kg,ip administrated for 21 consecutive days by immunohistochemistry analysis; type: functional, organism-based
[16] = Toxicity in BALB/c mouse xenografted with human MGC-803 cells assessed as morphological change in liver at 5 mg/kg,ip administrated for 21 consecutive days by hematoxylin and eosin staining method; type: organism-based; settings: in vivo
AGS [17] = test: Induction of apoptosis in human AGS cells assessed as viable cells at 3 uM incubated for 48 hrs by Annexin V-FITC/PI staining based flow cytometry method (reference value: 94.8 %); type: functional; settings: read-out: Activity
AGS [18] = test: Induction of apoptosis in human AGS cells assessed as late apoptotic cells at 1 uM incubated for 48 hrs by Annexin V-FITC/PI staining based flow cytometry method (reference value: 2.46 %); type: functional
AGS [19] = test: Induction of apoptosis in human AGS cells assessed as necrotic cells at 1 uM incubated for 48 hrs by Annexin V-FITC/PI staining based flow cytometry method (reference value: 0.32 %); type: functional
AGS [20] = test: Induction of apoptosis in human AGS cells assessed as viable cells at 0.3 uM incubated for 48 hrs by Annexin V-FITC/PI staining based flow cytometry method (reference value: 94.8 %); type: functional; settings: read-out: Activity
[21] = Toxicity in BALB/c mouse xenografted with human MGC-803 cells assessed as body weight loss at 15 mg/kg,ip administrated for 21 consecutive days; type: organism-based; settings: in vivo
[22] = Toxicity in BALB/c mouse xenografted with human MGC-803 cells assessed as morphological change in spleen at 15 mg/kg,ip administrated for 21 consecutive days by hematoxylin and eosin staining method; type: organism-based; settings: in vivo
AGS [23] = test: Induction of apoptosis in human AGS cells assessed as necrotic cells at 3 uM incubated for 48 hrs by Annexin V-FITC/PI staining based flow cytometry method (reference value: 0.32 %); type: functional
AGS [24] = test: Inhibition of cell migration in human AGS cells at 0.03 to 0.3 uM incubated for 48 hrs by wound healing assay based microscopic analysis; type: functional; settings: dose 0.03-0.3 µM
[25] = target: Signal transducer and activator of transcription 3 (Homo sapiens) (UniProt P40763); test: In vivo inhibition of STAT3 in BALB/c mouse xenografted with human MGC-803 cells assessed as reduction of Mcl-1 expression in tumor at 15 mg/kg,ip administrated for 21 consecutive days by immunohistochemistry analysis; type: functional, organism-based
AGS [26] = test: Induction of apoptosis in human AGS cells assessed as early apoptotic cells at 3 uM incubated for 48 hrs by Annexin V-FITC/PI staining based flow cytometry method (reference value: 2.38 %); type: functional
[27] = Toxicity in BALB/c mouse xenografted with human MGC-803 cells assessed as morphological change in spleen at 5 mg/kg,ip administrated for 21 consecutive days by hematoxylin and eosin staining method; type: organism-based; settings: in vivo
[28] = target: Signal transducer and activator of transcription 3 (Homo sapiens) (UniProt P40763); test: Thermal stabilization of STAT3 in human AGS cells at 1 uM at 37 to 54 degreeC incubated for 1 hr by cellular thermal shift assay; type: cell-based
[29] = target: Signal transducer and activator of transcription 3 (Homo sapiens) (UniProt P40763); test: Inhibition of Flag-tagged STAT3 (unknown origin) dimerization transfected in HEK293T cells at 0.3 to 3 uM incubated for 24 hrs followed by IL-6 stimulation and measured after 1 hr by immunoprecipitation assay; type: cell-based; settings: dose 0.3-3 µM, time 25.0 hrs
MGC-803 [30] = test: Antitumor activity against human MGC-803 cells xenografted in BALB/c mouse assessed as inhibition of tumor volume at 5 to 15 mg/kg,ip administrated for 21 consecutive days; type: functional, organism-based; settings: dose 5-15 mg/kg
[31] = Toxicity in BALB/c mouse xenografted with human MGC-803 cells assessed as morphological change in heart at 5 mg/kg,ip administrated for 21 consecutive days by hematoxylin and eosin staining method; type: organism-based; settings: in vivo

Signal transducer and activator of transcription 3 (Homo sapiens), sequence (P40763 whole entry): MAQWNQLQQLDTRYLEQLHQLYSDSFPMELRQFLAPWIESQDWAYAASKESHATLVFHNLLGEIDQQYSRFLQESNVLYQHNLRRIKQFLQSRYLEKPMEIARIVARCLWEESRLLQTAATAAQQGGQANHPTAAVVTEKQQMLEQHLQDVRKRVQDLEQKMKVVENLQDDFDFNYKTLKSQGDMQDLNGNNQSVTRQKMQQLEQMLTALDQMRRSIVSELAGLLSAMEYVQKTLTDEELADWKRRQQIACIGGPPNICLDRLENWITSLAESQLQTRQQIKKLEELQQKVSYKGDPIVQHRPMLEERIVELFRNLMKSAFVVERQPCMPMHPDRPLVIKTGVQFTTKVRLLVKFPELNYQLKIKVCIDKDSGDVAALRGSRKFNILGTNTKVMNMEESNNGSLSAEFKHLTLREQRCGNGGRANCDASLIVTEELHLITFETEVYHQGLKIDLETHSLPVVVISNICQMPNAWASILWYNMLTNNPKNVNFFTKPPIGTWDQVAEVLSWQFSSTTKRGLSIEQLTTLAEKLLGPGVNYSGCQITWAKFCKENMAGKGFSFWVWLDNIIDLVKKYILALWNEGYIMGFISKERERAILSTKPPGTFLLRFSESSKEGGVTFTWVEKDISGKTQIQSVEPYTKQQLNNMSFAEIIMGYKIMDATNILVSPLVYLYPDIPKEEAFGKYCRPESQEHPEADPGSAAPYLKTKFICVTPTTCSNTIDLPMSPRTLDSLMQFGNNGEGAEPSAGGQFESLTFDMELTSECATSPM

- inhibition [1]: Dose-Dependent Effect
- inhibition [2]: Active
- inhibition [6]: Active
- inhibition [7]: Dose-Dependent Effect
- IC50 (AGS [9]): 390 nM
- inhibition [11]: inactive
- IC50 (MGC-803 [12]): 900 nM
- inhibition [13]: inactive
- inhibition [25]: Active
- Activity [28]: Active
- inhibition [29]: Dose-Dependent Effect
SMILES: Cc1cc(NC(=O)c2ccc([N+](=O)[O-])o2)ccc1-c1cnc2ccccn12
- Activity [3]: Non-Toxic
- Activity [4]: Non-Toxic
- inhibition (AGS [5]): Active
- inhibition (MGC-803 [8]): Active
- Activity (AGS [10]): 6.37%
- Activity [14]: Non-Toxic
- inhibition (MGC-803 [15]): Active
- Activity [16]: Non-Toxic
- viability at 3 µM (AGS [17]): 81.3%
- Activity (AGS [18]): 2.67%
- Activity (AGS [19]): 0.75%
- viability at 0.3 µM (AGS [20]): 93.7%
- Activity [21]: Non-Toxic
- Activity [22]: Non-Toxic
- Activity (AGS [23]): 0.18%
- inhibition (AGS [24]): Dose-Dependent Effect
- Activity (AGS [26]): 12.1%
- Activity [27]: Non-Toxic
- inhibition (MGC-803 [30]): Dose-Dependent Effect
- Activity [31]: Non-Toxic
